Measurements published in the supplement of paper PMC10307832.

Legend:
Assay in all cases: relative viability (nuclei count vs DMSO), 5 days (fraction); higher = more cells survive
[1] = compound: Cc1ccc2nc(NCCN)c3ncc(C)n3c2c1 + Cc1cc(Nc2cc(N3CCN(C)CC3)nc(Sc3ccc(NC(=O)C4CC4)cc3)n2)n[nH]1 [Tozasertib] (partner 0.1 µM)
Method in brief: (§1)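 Lung cancer cell lines were pin-tool dosed in 1536-well plates on the day after seeding, with either a lone drug or a fixed anchor-drug dose plus five library-drug doses (not always all listed) in √10 steps. Nuclei were counted on 4× images after 5 days. Relative viability is the ratio of treated-well to vehicle-well nuclei counts, with each value a median of duplicate plates.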

[2] = compound: Cc1ccc2nc(NCCN)c3ncc(C)n3c2c1 + CC(C)C[C@H](NC(=O)[C@H](Cc1ccccc1)NC(=O)c1cnccn1)B(O)O [Bortezomib] (partner 0.002 µM)
Method in brief: as §1

[3] = compound: Cc1ccc2nc(NCCN)c3ncc(C)n3c2c1 + CS(=O)(=O)CCNCc1ccc(-c2ccc3ncnc(Nc4ccc(OCc5cccc(F)c5)c(Cl)c4)c3c2)o1 [Lapatinib] (partner 2 µM)
Method in brief: as §1

[4] = compound: Cc1ccc2nc(NCCN)c3ncc(C)n3c2c1 + O=C(c1cc(Cc2n[nH]c(=O)c3ccccc23)ccc1F)N1CCN(C(=O)C2CC2)CC1 [Olaparib] (partner 8 µM)
Method in brief: as §1

Row | Cell Line | relative viability ([1]; first compound 0.04 µM) | relative viability ([1]; first compound 0.1265 µM) | relative viability ([1]; first compound 0.4 µM) | relative viability ([1]; first compound 1.265 µM) | relative viability ([1]; first compound 4 µM) | relative viability ([2]; first compound 0.04 µM) | relative viability ([2]; first compound 0.1265 µM) | relative viability ([2]; first compound 0.4 µM) | relative viability ([2]; first compound 1.265 µM) | relative viability ([2]; first compound 4 µM) | relative viability ([3]; first compound 0.04 µM) | relative viability ([3]; first compound 0.1265 µM) | relative viability ([3]; first compound 0.4 µM) | relative viability ([3]; first compound 1.265 µM) | relative viability ([3]; first compound 4 µM) | relative viability ([4]; first compound 0.04 µM) | relative viability ([4]; first compound 0.1265 µM) | relative viability ([4]; first compound 0.4 µM) | relative viability ([4]; first compound 1.265 µM) | relative viability ([4]; first compound 4 µM)
1 | NCI-H1650 | 0.434 | 0.431 | 0.513 | 0.439 | 0.296 | 0.203 | 0.19 | 0.206 | 0.182 | 0.202 | 0.887 | 0.764 | 0.434 | 0.836 | 0.65 | 0.647 | 0.804 | 0.715 | 0.821 | 0.549
2 | BEN | 0.501 | 0.436 | 0.498 | 0.469 | 0.559 | 0.929 | 0.789 | 0.849 | 0.834 | 0.868 | 0.894 | 0.6 | 0.827 | 0.77 | 0.709 | 1.17 | 1.18 | 1.07 | 1.04 | 1.24
3 | EMC-BAC-2 | 0.297 | 0.282 | 0.313 | 0.265 | 0.288 | 1.12 | 1.12 | 0.957 | 1.13 | 1.05 | 0.915 | 0.875 | 0.847 | 0.918 | 0.851 | 0.519 | 0.502 | 0.507 | 0.456 | 0.488
4 | LU99A | 0.308 | 0.292 | 0.248 | 0.298 | 0.263 | 1.26 | 1.08 | 1.07 | 1.2 | 1 | 1 | 0.944 | 1.06 | 0.957 | 0.986 | 0.322 | 0.319 | 0.288 | 0.29 | 0.258
5 | NCI-H1793 | 0.603 | 0.375 | 0.371 | 0.32 | 0.375 | – | – | – | – | – | 0.942 | 0.697 | 0.734 | 0.581 | 0.737 | 1.06 | 0.812 | 0.836 | 0.651 | 0.795
6 | NCI-H1299 | – | – | – | – | – | 1 | 0.993 | 1.01 | 1.05 | 0.972 | 0.957 | 0.935 | 0.954 | 0.911 | 0.809 | 0.973 | 0.965 | 0.985 | 0.891 | 0.767
7 | EBC-1 | – | – | – | – | – | 0.549 | 0.526 | 0.486 | 0.406 | 0.31 | 0.207 | 0.201 | 0.233 | 0.179 | 0.191 | 0.679 | 0.681 | 0.72 | 0.602 | 0.546
8 | NCI-H358 | 0.11 | 0.134 | 0.0909 | 0.101 | 0.098 | – | – | – | – | – | 0.549 | 0.486 | 0.434 | 0.508 | 0.511 | 0.646 | 0.644 | 0.603 | 0.607 | 0.517
9 | NCI-H1792 | – | – | – | – | – | 0.963 | 0.915 | 0.912 | 0.94 | 0.968 | 0.944 | 0.904 | 0.837 | 0.857 | 0.81 | 0.499 | 0.279 | – | 0.458 | 0.295
10 | ChaGo-K-1 | 0.258 | 0.253 | 0.253 | 0.236 | 0.238 | 1.01 | 1 | 1.01 | 0.973 | 0.607 | – | – | – | – | – | 0.411 | 0.458 | 0.412 | 0.426 | 0.402
11 | LK-2 | 0.171 | 0.174 | 0.152 | 0.154 | 0.179 | – | – | – | – | – | 0.961 | 0.879 | 0.823 | 0.748 | 0.761 | 0.707 | 0.778 | 0.706 | 0.757 | 0.672
12 | NCI-H1648 | 0.498 | – | 0.546 | – | 0.3 | – | – | – | – | – | – | – | – | – | – | 1.08 | 0.846 | 0.789 | 0.843 | 0.666
13 | NCI-H1623 | 0.453 | 0.486 | 0.451 | 0.355 | 0.354 | – | – | – | – | – | – | – | – | – | – | – | – | – | – | –
14 | A549 | – | – | – | – | – | – | – | – | – | – | 1.23 | 0.941 | 0.918 | 1 | 0.83 | 0.409 | 0.406 | 0.333 | 0.317 | 0.301
15 | NCI-H1944 | 0.256 | 0.248 | 0.246 | 0.241 | 0.253 | – | – | – | – | – | 0.772 | 0.805 | 0.642 | 0.978 | 0.758 | 0.388 | 0.387 | 0.403 | 0.397 | 0.388
16 | NCI-H1563 | – | – | – | – | – | 0.859 | 0.757 | 0.875 | 0.968 | 1.05 | 0.963 | 1 | 0.88 | 1.15 | 0.88 | – | – | – | – | –
17 | NCI-H1395 | 0.754 | 0.763 | 0.661 | 0.655 | 0.795 | – | – | – | – | – | 0.936 | 0.917 | 0.958 | 0.994 | 0.803 | 0.47 | 0.467 | 0.491 | 0.429 | 0.437
18 | SK-MES-1 | 0.898 | 0.904 | 0.921 | 0.929 | 0.678 | – | – | – | – | – | 0.503 | 0.512 | 0.493 | 0.447 | 0.472 | 0.716 | 0.736 | 0.745 | 0.669 | 0.468
19 | IA-LM | – | – | – | – | – | 0.895 | 0.94 | 0.844 | 0.696 | 0.66 | 1.02 | 0.833 | 0.581 | 1 | 0.7 | 0.73 | 0.793 | 0.974 | 0.795 | 0.721
20 | NCI-H1703 | – | – | – | – | – | 0.34 | 0.329 | 0.329 | 0.347 | 0.234 | 1.15 | 0.958 | 1.03 | 1.19 | 0.997 | 0.393 | 0.362 | 0.619 | 0.47 | 0.437
21 | NCI-H441 | 0.605 | 0.631 | 0.716 | 0.625 | 0.685 | 0.72 | 0.463 | 0.423 | 0.533 | 0.438 | – | – | – | – | – | 0.631 | 0.384 | 0.622 | 0.646 | 0.549
22 | LCLC-103H | 0.426 | 0.525 | 0.384 | 0.427 | 0.439 | 1.15 | 1.23 | 0.944 | 1.2 | 1.04 | – | – | – | – | – | 0.752 | 0.748 | 0.778 | 0.743 | 0.739
23 | SW 900 | 0.491 | 0.513 | – | 0.471 | 0.612 | – | – | – | – | – | – | – | – | – | – | – | 0.865 | 0.884 | 0.874 | 0.827
